Measured values published in patent publication US20140213513A1 (Sanofi, priority 2012, published 2014).
*1 amine or outer side, *2 acyl side, *3 side chain or, on linkers, in order; H or OH if unused. Where a SMILES comes first, the peptide text is derived from it. Side-chain parts run from the residue outwards. [ ]: non-standard residue; d: D form. The star is where a group is joined. γGlu = O=C(O)[C@H](CCC(=O)[*:2])N[*:1]; Stearoyl = CCCCCCCCCCCCCCCCCC(=O)*; Palmitoyl = CCCCCCCCCCCCCCCC(=O)*; Aib = CC(C)(N)C(=O)O

Key:
Type in all cases: cell-based
Settings in all cases: Table 7; cAMP formation
[1] = target: T1, human GLP-1 receptor (hGLP-1 R) (Homo sapiens, UniProt P43220); assay: cAMP response of HEK-293 cells stably expressing human GLP-1 receptor (HTRF)
T1 construct: expressed in transfected cells
T1 sequence (P43220 24-463): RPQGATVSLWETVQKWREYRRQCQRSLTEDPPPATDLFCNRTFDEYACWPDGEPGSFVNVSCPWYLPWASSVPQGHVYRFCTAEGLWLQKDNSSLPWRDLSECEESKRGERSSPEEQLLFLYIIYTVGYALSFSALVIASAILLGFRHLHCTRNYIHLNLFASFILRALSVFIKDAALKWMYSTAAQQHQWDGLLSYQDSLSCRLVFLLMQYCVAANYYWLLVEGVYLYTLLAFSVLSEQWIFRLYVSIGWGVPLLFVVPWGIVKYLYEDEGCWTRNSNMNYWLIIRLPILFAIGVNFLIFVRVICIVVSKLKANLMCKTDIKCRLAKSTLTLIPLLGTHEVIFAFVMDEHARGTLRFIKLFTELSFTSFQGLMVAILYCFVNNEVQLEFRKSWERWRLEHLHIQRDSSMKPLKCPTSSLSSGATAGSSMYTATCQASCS
Outline: (§1)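 Cells grown overnight in DMEM/10% FBS, detached with accutase, resuspended in HBSS with 20 mM HEPES, 0.1% BSA and 2 mM IBMX at 400000 cells/ml. Test compound added and incubated 30 minutes at room temperature; cellular cAMP then measured by HTRF.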

[2] = target: T2, human GIP receptor (hGIP R) (Homo sapiens, UniProt P48546); assay: cAMP response of HEK-293 cells stably expressing human GIP receptor (HTRF)
T2 construct: expressed in transfected cells
T2 sequence (P48546 22-466): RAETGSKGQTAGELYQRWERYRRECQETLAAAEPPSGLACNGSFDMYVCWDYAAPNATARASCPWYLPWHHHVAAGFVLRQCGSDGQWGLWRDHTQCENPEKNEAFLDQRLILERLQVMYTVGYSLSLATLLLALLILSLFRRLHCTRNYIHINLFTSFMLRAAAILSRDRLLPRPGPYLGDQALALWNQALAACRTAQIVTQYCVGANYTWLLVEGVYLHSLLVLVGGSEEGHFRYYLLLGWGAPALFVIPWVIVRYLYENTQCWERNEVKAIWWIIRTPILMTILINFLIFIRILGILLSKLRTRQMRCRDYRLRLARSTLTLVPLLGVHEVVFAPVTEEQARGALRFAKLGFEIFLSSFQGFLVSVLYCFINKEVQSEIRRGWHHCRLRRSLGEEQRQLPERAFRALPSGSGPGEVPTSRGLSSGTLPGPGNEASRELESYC
Outline: as §1

[3] = target: T3, human glucagon receptor (hGLUC R) (Homo sapiens, UniProt P47871); assay: cAMP response of HEK-293 cells stably expressing human glucagon receptor (HTRF)
T3 construct: expressed in transfected cells
T3 sequence (P47871 26-477): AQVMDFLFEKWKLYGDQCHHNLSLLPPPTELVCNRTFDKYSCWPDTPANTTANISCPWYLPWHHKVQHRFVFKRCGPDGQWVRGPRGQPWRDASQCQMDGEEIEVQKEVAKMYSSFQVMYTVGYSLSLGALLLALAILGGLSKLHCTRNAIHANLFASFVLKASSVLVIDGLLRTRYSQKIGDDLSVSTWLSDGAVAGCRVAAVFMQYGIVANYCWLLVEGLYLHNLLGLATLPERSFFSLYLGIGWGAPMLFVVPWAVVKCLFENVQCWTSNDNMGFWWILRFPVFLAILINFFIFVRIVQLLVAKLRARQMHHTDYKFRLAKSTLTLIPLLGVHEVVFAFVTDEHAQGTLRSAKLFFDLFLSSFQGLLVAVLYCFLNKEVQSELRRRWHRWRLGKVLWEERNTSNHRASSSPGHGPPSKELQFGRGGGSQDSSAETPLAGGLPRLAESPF
Outline: as §1

Structure (SMILES) | EC50 [1] [nM] | EC50 [2] [nM] | EC50 [3] [nM]
CCCCCCCCCCCCCCCC(=O)N[C@@H](CCC(=O)NCCCC[C@H](NC(=O)[C@H](CCC(N)=O)NC(=O)[C@@H](NC(=O)[C@H](CO)NC(=O)[C@H](CC(C)C)NC(=O)[C@H](CC(=O)O)NC(=O)[C@H](CO)NC(=O)[C@@H](NC(=O)[C@H](Cc1ccccc1)NC(=O)[C@@H](NC(=O)CNC(=O)[C@H](CCC(N)=O)NC(=O)C(C)(C)NC(=O)[C@@H](N)Cc1ccc(O)cc1)[C@@H](C)O)[C@@H](C)O)[C@@H](C)CC)C(=O)N[C@@H](CC(=O)O)C(=O)N[C@@H](CO)C(=O)N[C@@H](CCCNC(=N)N)C(=O)N[C@@H](CCCNC(=N)N)C(=O)N[C@@H](C)C(=O)N[C@@H](CCC(N)=O)C(=O)N[C@@H](CC(=O)O)C(=O)N[C@@H](Cc1ccccc1)C(=O)N[C@H](C(=O)N[C@@H](CCC(=O)O)C(=O)N[C@@H](Cc1c[nH]c2ccccc12)C(=O)N[C@@H](CC(C)C)C(=O)N[C@@H](CCCCN)C(=O)N[C@@H](C)C(=O)NCC(=O)NCC(=O)N1CCC[C@H]1C(=O)N[C@@H](CO)C(=O)N[C@@H](CO)C(=O)NCC(=O)N[C@@H](C)C(=O)N1CCC[C@H]1C(=O)N1CCC[C@H]1C(=O)N1CCC[C@H]1C(=O)N[C@@H](CO)C(N)=O)[C@@H](C)CC)C(=O)O [SEQ ID NO: 52, Y-Aib-Q-G-T-F-T-S-D-L-S-I-Q-K(yE-x53)-DSRRAQDFIEWLKAGGPSSGAPPPS-NH2] (H-Y[Aib]QGTFTSDLSIQK([γGlu-Palmitoyl])DSRRAQDFIEWLKAGGPSSGAPPPS-NH2) | 0.0256 | 0.182 | 0.0133
CCCCCCCCCCCCCCCC(=O)N[C@@H](CCC(=O)NCCCC[C@H](NC(=O)[C@H](CCC(N)=O)NC(=O)[C@@H](NC(=O)[C@H](CO)NC(=O)[C@H](CC(C)C)NC(=O)[C@H](CC(=O)O)NC(=O)[C@H](CO)NC(=O)[C@@H](NC(=O)[C@H](Cc1ccccc1)NC(=O)[C@@H](NC(=O)CNC(=O)[C@H](CCC(=O)O)NC(=O)C(C)(C)NC(=O)[C@@H](N)Cc1ccc(O)cc1)[C@@H](C)O)[C@@H](C)O)[C@@H](C)CC)C(=O)N[C@@H](CC(=O)O)C(=O)N[C@@H](CCCCN)C(=O)N[C@@H](CCCNC(=N)N)C(=O)N[C@@H](C)C(=O)N[C@@H](C)C(=O)N[C@@H](CCC(N)=O)C(=O)N[C@@H](CC(C)C)C(=O)N[C@@H](Cc1ccccc1)C(=O)N[C@H](C(=O)N[C@@H](CCC(=O)O)C(=O)N[C@@H](Cc1c[nH]c2ccccc12)C(=O)N[C@@H](CC(C)C)C(=O)N[C@@H](CCCCN)C(=O)N[C@@H](CC(N)=O)C(=O)NCC(=O)NCC(=O)N1CCC[C@H]1C(=O)N[C@@H](CO)C(=O)N[C@@H](CO)C(=O)NCC(=O)N[C@@H](C)C(=O)N1CCC[C@H]1C(=O)N1CCC[C@H]1C(=O)N1CCC[C@H]1C(=O)N[C@@H](CO)C(N)=O)[C@@H](C)CC)C(=O)O [SEQ ID NO: 55, Y-Aib-E-G-T-F-T-S-D-L-S-I-Q-K(yE-x53)-DKRAAQLFIEWLKNGGPSSGAPPPS-NH2] (H-Y[Aib]EGTFTSDLSIQK([γGlu-Palmitoyl])DKRAAQLFIEWLKNGGPSSGAPPPS-NH2) | 0.0161 | 0.0156 | 18.3
CCCCCCCCCCCCCCCC(=O)N[C@@H](CCC(=O)NCCCC[C@H](NC(=O)[C@H](CCC(N)=O)NC(=O)[C@H](CCCCN)NC(=O)[C@H](CO)NC(=O)[C@H](CC(C)C)NC(=O)[C@H](CC(=O)O)NC(=O)[C@H](CO)NC(=O)[C@@H](NC(=O)[C@H](Cc1ccccc1)NC(=O)[C@@H](NC(=O)CNC(=O)[C@H](CCC(N)=O)NC(=O)C(C)(C)NC(=O)[C@@H](N)Cc1ccc(O)cc1)[C@@H](C)O)[C@@H](C)O)C(=O)N[C@@H](CC(=O)O)C(=O)N[C@@H](CO)C(=O)N[C@@H](CCCNC(=N)N)C(=O)N[C@@H](C)C(=O)N[C@@H](C)C(=O)N[C@@H](CCCNC(=N)N)C(=O)N[C@@H](CC(=O)O)C(=O)N[C@@H](Cc1ccccc1)C(=O)N[C@H](C(=O)N[C@@H](CCC(=O)O)C(=O)N[C@@H](Cc1c[nH]c2ccccc12)C(=O)N[C@@H](CC(C)C)C(=O)N[C@@H](CCCCN)C(=O)N[C@@H](C)C(=O)NCC(=O)NCC(=O)N1CCC[C@H]1C(=O)N[C@@H](CO)C(=O)N[C@@H](CO)C(=O)NCC(=O)N[C@@H](C)C(=O)N1CCC[C@H]1C(=O)N1CCC[C@H]1C(=O)N1CCC[C@H]1C(=O)N[C@@H](CO)C(N)=O)[C@@H](C)CC)C(=O)O [SEQ ID NO: 56, Y-Aib-Q-G-T-F-T-S-D-L-S-K-Q-K(yE-x53)-DSRAARDFIEWLKAGGPSSGAPPPS-NH2] (H-Y[Aib]QGTFTSDLSKQK([γGlu-Palmitoyl])DSRAARDFIEWLKAGGPSSGAPPPS-NH2) | 0.0046 | 0.162 | 0.0199
CCCCCCCCCCCCCCCC(=O)N[C@@H](CCC(=O)NCCCC[C@H](NC(=O)[C@H](CCC(N)=O)NC(=O)[C@@H](NC(=O)[C@H](CO)NC(=O)[C@H](CC(C)C)NC(=O)[C@H](CC(=O)O)NC(=O)[C@H](CO)NC(=O)[C@@H](NC(=O)[C@H](Cc1ccccc1)NC(=O)[C@@H](NC(=O)CNC(=O)[C@H](CCC(=O)O)NC(=O)C(C)(C)NC(=O)[C@@H](N)Cc1ccc(O)cc1)[C@@H](C)O)[C@@H](C)O)[C@@H](C)CC)C(=O)N[C@@H](CCC(=O)O)C(=O)N[C@@H](CCC(=O)O)C(=O)N[C@@H](CCCNC(=N)N)C(=O)N[C@@H](C)C(=O)N[C@@H](C)C(=O)N[C@@H](Cc1c[nH]cn1)C(=O)N[C@@H](CCC(=O)O)C(=O)N[C@@H](Cc1ccccc1)C(=O)N[C@H](C(=O)N[C@@H](CCC(=O)O)C(=O)N[C@@H](Cc1c[nH]c2ccccc12)C(=O)N[C@@H](CC(C)C)C(=O)N[C@@H](CCCCN)C(=O)N[C@@H](CCCNC(=N)N)C(=O)NC(C)(C)C(=O)NCC(=O)N1CCC[C@H]1C(=O)N[C@@H](CO)C(=O)N[C@@H](CO)C(=O)NCC(=O)N[C@@H](C)C(=O)N1CCC[C@H]1C(=O)N1CCC[C@H]1C(=O)N1CCC[C@H]1C(=O)N[C@@H](CO)C(=O)N[C@@H](CCCCN)C(N)=O)[C@@H](C)CC)C(=O)O [SEQ ID NO: 57, Y-Aib-E-G-T-F-T-S-D-L-S-I-Q-K(yE-x53)-E-E-R-A-A-H-E-F-I-E-W-L-K-R-Aib-G-P-S-S-G-A-P-P-P-S-K-NH2] | 0.0071 | 0.0157 | 14.4
CCCCCCCCCCCCCCCCCC(=O)N[C@@H](CCC(=O)NCCCC[C@H](NC(=O)[C@H](CCC(N)=O)NC(=O)[C@@H](NC(=O)[C@H](CO)NC(=O)[C@H](CC(C)C)NC(=O)[C@H](CC(=O)O)NC(=O)[C@H](CO)NC(=O)[C@@H](NC(=O)[C@H](Cc1ccccc1)NC(=O)[C@@H](NC(=O)CNC(=O)[C@H](CCC(=O)O)NC(=O)C(C)(C)NC(=O)[C@@H](N)Cc1ccc(O)cc1)[C@@H](C)O)[C@@H](C)O)[C@@H](C)CC)C(=O)N[C@@H](CCC(=O)O)C(=O)N[C@@H](CO)C(=O)N[C@@H](CCCCN)C(=O)N[C@@H](C)C(=O)N[C@@H](C)C(=O)N[C@@H](Cc1c[nH]cn1)C(=O)N[C@@H](CCC(=O)O)C(=O)N[C@@H](Cc1ccccc1)C(=O)N[C@H](C(=O)N[C@@H](CCC(=O)O)C(=O)N[C@@H](Cc1c[nH]c2ccccc12)C(=O)N[C@@H](CC(C)C)C(=O)N[C@@H](CCCCN)C(=O)N[C@@H](C)C(=O)NCC(=O)NCC(=O)N1CCC[C@H]1C(=O)N[C@@H](CO)C(=O)N[C@@H](CO)C(=O)NCC(=O)N[C@@H](C)C(=O)N1CCC[C@H]1C(=O)N1CCC[C@H]1C(=O)N1CCC[C@H]1C(=O)N[C@@H](CO)C(=O)N[C@@H](CCCCN)C(N)=O)[C@@H](C)CC)C(=O)O [SEQ ID NO: 58, Y-Aib-E-G-T-F-T-S-D-L-S-I-Q-K(yE-x70)-ESKAAHEFIEWLKAGGPSSGAPPPSK-NH2] (H-Y[Aib]EGTFTSDLSIQK([γGlu-Stearoyl])ESKAAHEFIEWLKAGGPSSGAPPPSK-NH2) | 0.0125 | 0.0086 | 16
CCCCCCCCCCCCCCCC(=O)N[C@@H](CCC(=O)NCCCC[C@H](NC(=O)[C@H](CCC(N)=O)NC(=O)[C@@H](NC(=O)[C@H](CO)NC(=O)[C@H](CC(C)C)NC(=O)[C@H](CC(=O)O)NC(=O)[C@H](CO)NC(=O)[C@@H](NC(=O)[C@H](Cc1ccccc1)NC(=O)[C@@H](NC(=O)CNC(=O)[C@H](CCC(=O)O)NC(=O)C(C)(C)NC(=O)[C@@H](N)Cc1ccc(O)cc1)[C@@H](C)O)[C@@H](C)O)[C@@H](C)CC)C(=O)N[C@@H](CCC(=O)O)C(=O)N[C@@H](CCCCN)C(=O)N[C@@H](CCCNC(=N)N)C(=O)N[C@@H](C)C(=O)N[C@@H](C)C(=O)N[C@@H](Cc1c[nH]cn1)C(=O)N[C@@H](CCC(=O)O)C(=O)N[C@@H](Cc1ccccc1)C(=O)N[C@H](C(=O)N[C@@H](CCC(=O)O)C(=O)N[C@@H](Cc1c[nH]c2ccccc12)C(=O)N[C@@H](CC(C)C)C(=O)N[C@@H](CCCCN)C(=O)N[C@@H](CC(N)=O)C(=O)N[C@H](C(=O)NCC(=O)N1CCC[C@H]1C(=O)N[C@@H](CO)C(=O)N[C@@H](CO)C(=O)NCC(=O)N[C@@H](C)C(=O)N1CCC[C@H]1C(=O)N1CCC[C@H]1C(=O)N1CCC[C@H]1C(=O)N[C@@H](CO)C(N)=O)[C@@H](C)O)[C@@H](C)CC)C(=O)O [SEQ ID NO: 59, Y-Aib-E-G-T-F-T-S-D-L-S-I-Q-K(yE-x53)-EKRAAHEFIEWLKNTGPSSGAPPPS-NH2] (H-Y[Aib]EGTFTSDLSIQK([γGlu-Palmitoyl])EKRAAHEFIEWLKNTGPSSGAPPPS-NH2) | 0.0075 | 0.0175 | 12.3
